Tests used:
nuclear localized EGFR = assay: Subcellular protein fractionation for EGFR nuclear localization; format: cell-based, human; conditions: MDA-MB-468 serum starved, EGF and peptide for 2 hours
Experimental: Cells were then fractionated and verified by HSP90 cytosolic protein, Bap31 membrane protein, or HDAC nuclear protein. B. MDA-MB-468 cells were serum starved overnight then stimulated with EGF on ice for 10 minutes. […] B. MDA-MB-468 cells were serum starved overnight then incubated on ice with 10 ng/mL EGF for 10 minutes. […] C. […] After the second week, the number of secondary mammospheres were counted.
MDA-MB-468 were serum starved overnight then incubated with EGF and peptide for 2 hours to allow for nuclear localization of EGFR. Subcellular protein fractionation was then performed to isolate cytosolic, membrane, and nuclear protein fractions (FIG. 5A).

[1] = system: A549 lung cancer line with wildtype EGFR; assay: MTT cell viability assay in A549 cells; format: cell-based; conditions: 3 days
[2] = system: H1975 cell line with an EGFR driver mutation in the kinase domain (T790M); assay: MTT cell viability assay in H1975 cells; format: cell-based; conditions: 3 days
[3] = Toxicity evaluation in C57Bl/6J female mice; format: in vivo, mouse; conditions: 5.0 or 10.0 μg/g body weight, 3×/week IV, 2 weeks; cSNX1.3 versus cPTD4; data not shown
Experimental: Mice are continually bred to activate the pregnancy-dependent WAP promoter, which drives expression of the EGFR ligand Transforming Growth Factor alpha (TGFα) strictly to the mouse mammary glands. This model stochastically forms unifocal mammary adenocarcinomas through a process that begins with mammary hyperplasia, followed by tumor formation over approximately 8 months. […] No difference in weight or behavior or grooming was observed. Therefore 10 μg/g body weight was used for subsequent studies.

WAP-TGFα tumors = assay: Immune profiling FACS analysis of WAP-TGFα tumors; format: in vivo, mouse; conditions: 3 treated tumors; preliminary FACS
Experimental: Preliminary immune profiling FACS analysis performed with the markers described in Example 1.
To begin to evaluate how these changes indicated by NanoString represented the immune microenvironment of these tumors, Immune Profiling was performed. […] When tumors had regressed to ˜100 mm^3 (after 1-2 weeks of treatment), tumor were excised, treated with collagenase and analyzed by FACS, using a 17-antibody panel to determine cell types present. Data was analyzed by first selecting for CD45+ cells to isolate leukocytes, then further gated based on markers specific to cells of both the adaptive and innate immune system. This preliminary analysis was done with 3 cSNX1.3-treated tumors, and the internal positive control of one spleen. […]
Immune Profiling: Tissues are digested and analyzed by FACS for the following immune markers: CD45 (lymphocytes), CD4 (helper T cells) CD3 (Pan T cell), CD25 (Activated T cells), CD8a (cytotoxic T cells), Ly6G (G-Myeloid Derived Suppressor Cells (MDSC), CD11 b (MDSC), Ly6C (M-M DSC), CD11C (Dendritic Cells), F4/80 (Macrophages), Granzyme B (Natural Killer (NK) and CD8 T cells), Arginase 1 (MDSC), Perforin (NK and CD8 Tcells), iNos (macrophages), TNFα (pro inflammatory cytokine), INFy (pro inflammatory cytokine), FoxP3 (Treg). The samples are run on a Cytek Aurora full spectrum flow cytometer and are optimized for the mouse tissues (FIG. 10). […]

CC[C@H](C)[C@H](NC(=O)[C@@H](NC(=O)[C@H](Cc1c[nH]cn1)NC(=O)[C@H](CC(N)=O)NC(=O)[C@H](CCCCN)NC(=O)[C@H](C)NC(=O)[C@H](CCCNC(=N)N)NC(=O)[C@H](C)NC(=O)[C@H](CCC(N)=O)NC(=O)[C@H](CCCNC(=N)N)NC(=O)[C@H](C)NC(=O)[C@H](C)NC(=O)[C@H](C)NC(=O)[C@H](CCCNC(=N)N)NC(=O)[C@H](C)NC(=O)[C@H](Cc1ccc(O)cc1)NC(C)=O)C(C)C)C(=O)N[C@@H](CCCCN)C(=O)N[C@@H](Cc1ccc(O)cc1)C(=O)N[C@@H](CC(C)C)C(=O)N[C@@H](CCC(=O)O)C(=O)N[C@H](C(=O)N[C@@H](CC(C)C)C(=O)N[C@@H](CC(C)C)C(=O)N[C@@H](Cc1ccc(O)cc1)C(=O)N[C@@H](CO)C(=O)N[C@@H](CCC(N)=O)C(=O)N[C@@H](CCC(N)=O)C(=O)N[C@@H](CCC(N)=O)C(=O)N[C@@H](CC(C)C)C(=O)N[C@@H](C)C(=O)N[C@@H](CCCCN)C(=O)N[C@@H](Cc1ccc(O)cc1)C(=O)N[C@@H](Cc1c[nH]c2ccccc12)C(=O)N[C@@H](CCC(=O)O)C(=O)N[C@@H](C)C(=O)N[C@@H](Cc1ccccc1)C(=O)N[C@@H](CC(C)C)C(N)=O)[C@@H](C)O [cSNX1.3]
nuclear localized EGFR (nuclear localized EGFR): loss of nuclear localized EGFR | inhibition of cell survival, compared with Sapitinib [1]: more effective than Sapitinib | effect on cell viability [2]: no effect | difference in weight or behavior or grooming [3]: No difference | CTLs in tumors (WAP-TGFα tumors): Abundant | M1 macrophages over M2 macrophages (M1/M2 ratio) (WAP-TGFα tumors): high and increase
